Experimental data taken from ChEMBL document CHEMBL1671626, “In vitro profiling of ceftaroline against a collection of recent bacterial clinical isolates from across the United States” (2008).
≈ marks a conversion by molar mass, not a printed value.

Experiments:
Type in all cases: functional
Acinetobacter [1] = experiment: Antibacterial activity against imipenem-susceptible Acinetobacter assessed as resistant isolates by CLSI M7-A7 broth microdilution method
Moraxella catarrhalis [2] = experiment: Antibacterial activity against beta lactamase-positive Moraxella catarrhalis by CLSI M7-A7 broth microdilution method
Serratia marcescens [3] = experiment: Antibacterial activity against ceftazidime-susceptible Serratia marcescens by CLSI M7-A7 broth microdilution method
Enterobacteriaceae [4] = experiment: Antibacterial activity against ceftazidime-nonsusceptible Enterobacteriaceae assessed as resistant isolates by CLSI M7-A7 broth microdilution method
Staphylococcus aureus [5] = experiment: Antibacterial activity against methicillin-susceptible Staphylococcus aureus by CLSI M7-A7 broth microdilution method
Citrobacter freundii [6] = experiment: Antibacterial activity against ceftazidime-susceptible Citrobacter freundii assessed as susceptible isolates by CLSI M7-A7 broth microdilution method
Klebsiella pneumoniae [7] = experiment: Antibacterial activity against ceftazidime-susceptible Klebsiella pneumoniae assessed as susceptible isolates by CLSI M7-A7 broth microdilution method
Haemophilus influenzae = experiment: Antibacterial activity against beta lactamase-positive Haemophilus influenzae assessed as susceptible isolates by CLSI M7-A7 broth microdilution method
Staphylococcus aureus [8] = experiment: Antibacterial activity against coagulase-negative and oxacillin-susceptible Staphylococcus aureus by CLSI M7-A7 broth microdilution method
Streptococcus pyogenes = experiment: Antibacterial activity against erythromycin-nonsusceptible Streptococcus pyogenes by CLSI M7-A7 broth microdilution method
Staphylococcus aureus [9] = experiment: Antibacterial activity against coagulase-negative and oxacillin-resistant Staphylococcus aureus assessed as susceptible isolates by CLSI M7-A7 broth microdilution method
Escherichia coli [10] = experiment: Antibacterial activity against ceftazidime-nonsusceptible Escherichia coli assessed as susceptible isolates by CLSI M7-A7 broth microdilution method
Staphylococcus aureus [11] = experiment: Antibacterial activity against coagulase-negative and oxacillin-resistant Staphylococcus aureus assessed as resistant isolates by CLSI M7-A7 broth microdilution method
Providencia sp. [12] = experiment: Antibacterial activity against ceftazidime-susceptible Providencia sp. assessed as resistant isolates by CLSI M7-A7 broth microdilution method
Staphylococcus aureus [13] = experiment: Antibacterial activity against methicillin-resistant Staphylococcus aureus assessed as susceptible isolates by CLSI M7-A7 broth microdilution method
Proteus mirabilis = experiment: Antibacterial activity against ceftazidime-susceptible Proteus mirabilis assessed as susceptible isolates by CLSI M7-A7 broth microdilution method
Citrobacter freundii [14] = experiment: Antibacterial activity against ceftazidime-susceptible Citrobacter freundii by CLSI M7-A7 broth microdilution method
Enterococcus faecium = experiment: Antibacterial activity against vancomycin-resistant Enterococcus faecium by CLSI M7-A7 broth microdilution method
Enterobacter cloacae [15] = experiment: Antibacterial activity against ceftazidime-susceptible Enterobacter cloacae assessed as resistant isolates by CLSI M7-A7 broth microdilution method
Acinetobacter [16] = experiment: Antibacterial activity against multidrug-resistant Acinetobacter assessed as susceptible isolates by CLSI M7-A7 broth microdilution method
Escherichia coli [17] = experiment: Antibacterial activity against ceftazidime-nonsusceptible Escherichia coli by CLSI M7-A7 broth microdilution method
Staphylococcus aureus [18] = experiment: Antibacterial activity against methicillin-susceptible Staphylococcus aureus assessed as susceptible isolates by CLSI M7-A7 broth microdilution method
Providencia sp. [19] = experiment: Antibacterial activity against ceftazidime-susceptible Providencia sp. assessed as susceptible isolates by CLSI M7-A7 broth microdilution method
Citrobacter freundii [20] = experiment: Antibacterial activity against ceftazidime-nonsusceptible Citrobacter freundii by CLSI M7-A7 broth microdilution method
Escherichia coli [21] = experiment: Antibacterial activity against ceftazidime-nonsusceptible Escherichia coli assessed as resistant isolates by CLSI M7-A7 broth microdilution method
Enterobacter cloacae [22] = experiment: Antibacterial activity against ceftazidime-nonsusceptible Enterobacter cloacae assessed as resistant isolates by CLSI M7-A7 broth microdilution method
Klebsiella pneumoniae [23] = experiment: Antibacterial activity against ceftazidime-nonsusceptible Klebsiella pneumoniae assessed as susceptible isolates by CLSI M7-A7 broth microdilution method
Escherichia coli [24] = experiment: Antibacterial activity against ceftazidime-susceptible Escherichia coli assessed as susceptible isolates by CLSI M7-A7 broth microdilution method
Staphylococcus aureus [25] = experiment: Antibacterial activity against methicillin-susceptible Staphylococcus aureus assessed as resistant isolates by CLSI M7-A7 broth microdilution method
Morganella morganii = experiment: Antibacterial activity against ceftazidime-susceptible Morganella morganii assessed as susceptible isolates by CLSI M7-A7 broth microdilution method
Enterobacter cloacae [26] = experiment: Antibacterial activity against ceftazidime-nonsusceptible Enterobacter cloacae assessed as susceptible isolates by CLSI M7-A7 broth microdilution method
Streptococcus pneumoniae = experiment: Antibacterial activity against penicillin-resistant Streptococcus pneumoniae by CLSI M7-A7 broth microdilution method
Klebsiella pneumoniae [27] = experiment: Antibacterial activity against ceftazidime-susceptible Klebsiella pneumoniae assessed as resistant isolates by CLSI M7-A7 broth microdilution method
Escherichia coli [28] = experiment: Antibacterial activity against ceftazidime-susceptible Escherichia coli by CLSI M7-A7 broth microdilution method
Enterobacteriaceae [29] = experiment: Antibacterial activity against ceftazidime-susceptible Enterobacteriaceae assessed as susceptible isolates by CLSI M7-A7 broth microdilution method
Moraxella catarrhalis [30] = experiment: Antibacterial activity against beta lactamase-positive Moraxella catarrhalis assessed as susceptible isolates by CLSI M7-A7 broth microdilution method
Enterococcus faecalis [31] = experiment: Antibacterial activity against vancomycin-resistant Enterococcus faecalis by CLSI M7-A7 broth microdilution method
Acinetobacter [32] = experiment: Antibacterial activity against multidrug-resistant Acinetobacter assessed as resistant isolates by CLSI M7-A7 broth microdilution method
Streptococcus agalactiae = experiment: Antibacterial activity against erythromycin-susceptible Streptococcus agalactiae by CLSI M7-A7 broth microdilution method
Klebsiella pneumoniae [33] = experiment: Antibacterial activity against ceftazidime-nonsusceptible Klebsiella pneumoniae by CLSI M7-A7 broth microdilution method
Serratia marcescens [34] = experiment: Antibacterial activity against ceftazidime-susceptible Serratia marcescens assessed as susceptible isolates by CLSI M7-A7 broth microdilution method
Citrobacter freundii [35] = experiment: Antibacterial activity against ceftazidime-nonsusceptible Citrobacter freundii assessed as resistant isolates by CLSI M7-A7 broth microdilution method
Enterococcus faecalis [36] = experiment: Antibacterial activity against vancomycin-susceptible Enterococcus faecalis by CLSI M7-A7 broth microdilution method

CC(C)(O/N=C(\C(=O)N[C@@H]1C(=O)N2C(C(=O)[O-])=C(C[n+]3ccccc3)CS[C@H]12)c1csc(N)n1)C(=O)O [CEFTAZIDIME]
Activity (Acinetobacter [1]): 31.9%
MIC (Moraxella catarrhalis [2]): ≤ 1 µg/mL
MIC50 (Moraxella catarrhalis [2]): ≤ 1 µg/mL
MIC90 (Moraxella catarrhalis [2]): ≤ 1 µg/mL
MIC50 (Serratia marcescens [3]): 0.12 µg/mL (≈ 0.22 µM)
MIC90 (Serratia marcescens [3]): 1 µg/mL (≈ 1.83 µM)
Activity (Enterobacteriaceae [4]): 90%
MIC50 (Staphylococcus aureus [5]): 8 µg/mL (≈ 14.6 µM)
MIC90 (Staphylococcus aureus [5]): 8 µg/mL (≈ 14.6 µM)
Activity (Citrobacter freundii [6]): 100%
Activity (Klebsiella pneumoniae [7]): 100%
Activity (Haemophilus influenzae): 98%
MIC50 (Staphylococcus aureus [8]): 4 µg/mL (≈ 7.32 µM)
MIC90 (Staphylococcus aureus [8]): 8 µg/mL (≈ 14.6 µM)
MIC (Streptococcus pyogenes): ≤ 1 µg/mL
MIC50 (Streptococcus pyogenes): ≤ 1 µg/mL
MIC90 (Streptococcus pyogenes): ≤ 1 µg/mL
Activity (Staphylococcus aureus [9]): 10%
Activity (Escherichia coli [10]): 0%
Activity (Staphylococcus aureus [11]): 66.2%
Activity (Providencia sp. [12]): 0%
Activity (Staphylococcus aureus [13]): 11%
Activity (Proteus mirabilis): 100%
MIC50 (Citrobacter freundii [14]): 0.25 µg/mL (≈ 0.457 µM)
MIC90 (Citrobacter freundii [14]): 1 µg/mL (≈ 1.83 µM)
MIC (Enterococcus faecium): > 32 µg/mL
MIC50 (Enterococcus faecium): > 32 µg/mL
MIC90 (Enterococcus faecium): > 32 µg/mL
Activity (Enterobacter cloacae [15]): 0%
Activity (Acinetobacter [16]): 0%
MIC50 (Escherichia coli [17]): > 32 µg/mL
MIC90 (Escherichia coli [17]): > 32 µg/mL
Activity (Staphylococcus aureus [18]): 92%
Activity (Providencia sp. [19]): 100%
MIC50 (Citrobacter freundii [20]): > 32 µg/mL
MIC90 (Citrobacter freundii [20]): > 32 µg/mL
Activity (Escherichia coli [21]): 87.3%
Activity (Enterobacter cloacae [22]): 91.4%
Activity (Klebsiella pneumoniae [23]): 0%
Activity (Escherichia coli [24]): 100%
Activity (Staphylococcus aureus [25]): 1.7%
Activity (Morganella morganii): 100%
Activity (Enterobacter cloacae [26]): 0%
MIC50 (Streptococcus pneumoniae): 16 µg/mL (≈ 29.3 µM)
MIC90 (Streptococcus pneumoniae): 32 µg/mL (≈ 58.5 µM)
Activity (Klebsiella pneumoniae [27]): 0%
MIC50 (Escherichia coli [28]): 0.12 µg/mL (≈ 0.22 µM)
MIC90 (Escherichia coli [28]): 0.25 µg/mL (≈ 0.457 µM)
Activity (Enterobacteriaceae [29]): 100%
Activity (Moraxella catarrhalis [30]): 100%
MIC50 (Enterococcus faecalis [31]): > 32 µg/mL
MIC90 (Enterococcus faecalis [31]): > 32 µg/mL
Activity (Acinetobacter [32]): 93.8%
MIC (Streptococcus agalactiae): ≤ 1 µg/mL
MIC50 (Streptococcus agalactiae): ≤ 1 µg/mL
MIC90 (Streptococcus agalactiae): ≤ 1 µg/mL
MIC50 (Klebsiella pneumoniae [33]): > 32 µg/mL
MIC90 (Klebsiella pneumoniae [33]): > 32 µg/mL
Activity (Serratia marcescens [34]): 100%
Activity (Citrobacter freundii [35]): 97%
MIC (Enterococcus faecalis [36]): > 32 µg/mL
MIC50 (Enterococcus faecalis [36]): > 32 µg/mL
MIC90 (Enterococcus faecalis [36]): > 32 µg/mL
